This passage reports IC50 results from ChEMBL document CHEMBL3639068, “Small molecule inhibitors of Plasmodium falciparum dihydroorotate dehydrogenase” (2014).

SMILES strings stand for the structures. A value given as a limit tells only on which side of the number the result lay.

Assay [1] has as its target T1, Dihydroorotate dehydrogenase (fumarate) (Saccharomyces cerevisiae S288c, UniProt P28272).
T1 sequence (P28272 whole entry): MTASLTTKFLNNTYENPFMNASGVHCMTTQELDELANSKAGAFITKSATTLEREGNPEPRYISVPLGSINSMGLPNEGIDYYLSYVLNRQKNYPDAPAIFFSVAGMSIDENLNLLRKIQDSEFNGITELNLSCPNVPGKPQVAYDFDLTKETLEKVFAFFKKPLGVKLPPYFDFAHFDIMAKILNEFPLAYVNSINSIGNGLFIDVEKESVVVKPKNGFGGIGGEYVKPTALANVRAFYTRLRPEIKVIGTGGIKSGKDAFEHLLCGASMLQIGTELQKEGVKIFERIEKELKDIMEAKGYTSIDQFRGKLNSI
In words: (§1) Enzymatic Assays: Type 2 DHODH activity was monitored with either the direct assay measuring the formation of orotate or via a chromogen reduction assay using DCIP. Although the extinction coefficient and absorption wavelength are preferable for the chromogen reduction assay, the […] electron acceptor DCIP can be utilized by DHODH as the final electron acceptor in lieu of CoQn when the endogenous substrate is at a low concentration. As such, the direct assay was used to measure the binding affinity of pfDHODH to CoQD and L-DHO. The enzymatic reaction was performed by varying the L-DHO concentration (1-400 μM) or CoQD concentration (1-200 μM) while keeping the other substrate constant and in excess. Inhibition of DHODH by small molecules was evaluated using the chromogen based assay with a final substrate concentration of 200 μM L-DHO, 18 μM CoQD, and 100 μM DCIP, unless otherwise noted.

For assay [2], the target named is T2, Dihydroorotate dehydrogenase, mitochondrial, putative (Plasmodium vivax (strain Salvador I), UniProt A5K1N1).
T2 sequence (A5K1N1 whole entry): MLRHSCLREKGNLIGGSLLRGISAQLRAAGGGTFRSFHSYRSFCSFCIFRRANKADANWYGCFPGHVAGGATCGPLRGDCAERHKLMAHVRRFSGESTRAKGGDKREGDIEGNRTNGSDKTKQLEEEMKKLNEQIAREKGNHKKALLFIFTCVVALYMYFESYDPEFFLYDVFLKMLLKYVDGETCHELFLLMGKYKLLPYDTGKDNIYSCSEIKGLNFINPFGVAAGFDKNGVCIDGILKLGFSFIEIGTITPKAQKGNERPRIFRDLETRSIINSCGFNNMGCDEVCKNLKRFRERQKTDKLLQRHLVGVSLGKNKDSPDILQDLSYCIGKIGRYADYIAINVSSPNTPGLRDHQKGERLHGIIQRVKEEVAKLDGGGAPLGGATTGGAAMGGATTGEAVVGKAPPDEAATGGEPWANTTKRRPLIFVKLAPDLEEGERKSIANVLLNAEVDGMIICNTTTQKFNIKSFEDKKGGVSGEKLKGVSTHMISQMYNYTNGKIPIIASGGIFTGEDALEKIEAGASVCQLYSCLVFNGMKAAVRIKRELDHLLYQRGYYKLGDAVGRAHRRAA
The assay is described as §1.

In assay [3] the target is Dihydroorotate dehydrogenase (quinone), mitochondrial (Homo sapiens, UniProt Q02127). Described as §1.
Sequence of Dihydroorotate dehydrogenase (quinone), mitochondrial (Q02127 whole entry): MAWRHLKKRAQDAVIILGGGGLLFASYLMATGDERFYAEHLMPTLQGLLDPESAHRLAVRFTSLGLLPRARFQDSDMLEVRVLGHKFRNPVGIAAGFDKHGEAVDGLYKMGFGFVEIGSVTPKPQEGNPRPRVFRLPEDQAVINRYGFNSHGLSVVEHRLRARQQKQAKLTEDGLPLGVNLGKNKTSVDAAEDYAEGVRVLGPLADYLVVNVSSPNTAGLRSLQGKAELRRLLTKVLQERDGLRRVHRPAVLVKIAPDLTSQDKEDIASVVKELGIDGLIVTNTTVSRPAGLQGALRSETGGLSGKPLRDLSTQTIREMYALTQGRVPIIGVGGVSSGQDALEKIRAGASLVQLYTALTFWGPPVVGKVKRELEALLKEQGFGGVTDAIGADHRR

As a reminder, the IC50 is the midpoint of a concentration-inhibition curve. Higher therefore signals lower potency. As for `Fc1cc(I)ccc1Nc1ccnc2cc(Cl)ccc12`, the values for the IC50 in assay [1], in assay [2] and in assay [3] were greater than 10 µM, greater than 10 µM and greater than 30 µM, respectively.

In assay [1], `CCCCCC1CCCc2c1nc1ccccc1c2O` (configuration not stated) returned an IC50 greater than 10 µM.

For `CCCNC(=O)c1ccc(N2CCN(C)CC2)s1`, the IC50 in assay [3] is greater than 30 µM.

In assay [2], `Cc1ccccc1/C=C/c1cc(O)c2ccccc2n1` had an IC50 of 5.6 µM. That is a single-digit micromolar value.

`CCOC(=O)c1[nH]c(C)c(Cc2ccc(OCC)cc2)c1C` registered an IC50 in assay [1] greater than 10 µM.
